Values joined by “and” are separate entries in the source; they are usually repeats but may differ in a detail not shown here. Identical values can stand only once.
First: COc1cc[n+]([O-])cc1 [4-methoxypyridine n-oxide]
Second: Cc1cc[n+]([O-])cc1 [4-picoline n-oxide]
The melting point of the first is lower: 102 °C for the first, 184 °C for the second.

Going from `CCCCCCCCOc1ccc(NC(=O)c2ccc(C)cc2)cc1` [4-methyl-N-[4-(octyloxy)phenyl]benzamide] to `CCCCCCCCCc1ccc(B(O)O)cc1` [4-n-nonylbenzeneboronic acid], the melting point falls from 141 °C to 84 °C.

Going from `Cc1ccc(CO)cc1` [4-methylbenzyl_alcohol] to `Cc1ccc(Cc2ccccc2)cc1` [4-methyldiphenylmethane], the melting point falls from 61 °C to 5 °C.

First: Cc1ccc(O)c(O)c1 [4-methylcatechol]
Second: Cc1ccc(N)cc1O [5-Amino-o-cresol]
The melting point of the first is lower: 68 °C for the first, 161 °C for the second.

Compared with `CC(=O)OCC1OC(Oc2ccc(C)cc2)C(OC(C)=O)C(OC(C)=O)C1OC(C)=O` (centres undefined) [4-methylphenyl 2,3,4,6-tetra-O-acetylhexopyranoside], `CC(=O)Oc1ccc2c(C)cc(=O)oc2c1` [4-methylumbelliferyl acetate] is higher in melting point: 126 °C for the first, 150 °C for the second.

First: Cc1cc[n+]([O-])cc1C#N [4-methylpyridine-3-carbonitrile 1-oxide]
Second: Cc1c[n+]([O-])ccc1[N+](=O)[O-] [4-nitro-3-picoline n-oxide]
The melting point of the first is higher: 185 °C for the first, 136 °C for the second.

Going from `CCCCc1ccc(C(N)=O)cc1` [4-n-butylbenzamide] to `CCCCc1ccc(O)cc1` [4-n-butylphenol], the melting point falls from 128 °C to 22 °C.

Going from `CCCCCCCc1ccc(O)cc1` [4-n-heptylphenol] to `CCCCCc1ccc(B(O)O)cc1` [4-n-pentylbenzeneboronic acid], the melting point rises from 27 °C to 83 °C.

Going from `CCCCCCc1ccc(O)cc1O` [4-n-hexylresorcinol] to `O=C(O)c1cc(O)ccc1[N+](=O)[O-]` [5-hydroxy-2-nitrobenzoic acid], the melting point rises from 66 °C to 170 °C.

Compared with `Nc1ccc([N+](=O)[O-])cc1N` [4-nitro-o-phenylenediamine], `COc1ccc([N+](=O)[O-])cc1` [4-nitroanisole] is lower in melting point: 201 °C for the first, 52 °C for the second.

Going from `O=Cc1ccc([N+](=O)[O-])cc1` [4-nitrobenzaldehyde] to `O=[N+]([O-])c1ccc(O)cc1` [4-nitrophenol] [listing 1 of 2 here], the melting point rises from 105 °C to 112 °C.

First: O=[N+]([O-])c1ccc(CCl)cc1 [4-nitrobenzyl chloride]
Second: N#CCc1ccc([N+](=O)[O-])cc1 [4-nitrophenylacetonitrile]
The melting point of the first is lower: 72 °C for the first, 116 °C for the second.

Compared with `O=C(/C=C/c1ccc([N+](=O)[O-])cc1)c1ccccc1` [4-nitrochalcone], `O=C(Oc1ccc([N+](=O)[O-])cc1)c1ccccc1` [4-nitrophenyl benzoate] is lower in melting point: 164 °C for the first, 143 °C for the second.

First: O=C(CCl)Oc1ccc([N+](=O)[O-])cc1 [4-nitrophenyl chloroacetate]
Second: O=C=Nc1ccc([N+](=O)[O-])cc1 [4-nitrophenyl isocyanate]
The melting point of the first is higher: 94 °C for the first, 58 °C for the second.

First: O=[N+]([O-])c1cc[n+]([O-])cc1 [4-nitropyridine n-oxide]
Second: Cc1cc(C)cc([N+](=O)[O-])c1 [5-nitro-1,3-dimethylbenzene]
The melting point of the first is higher: 161 °C for the first, 74 °C for the second.

Going from `C=CCCC(=O)O` [4-pentenoic acid] to `NCCCCC(=O)O` [5-aminovaleric acid], the melting point rises from -22 °C to 157 °C.

First: N#Cc1ccc(Oc2ccccc2)cc1 [4-phenoxybenzonitrile]
Second: O=C(O)Cc1ccc(Oc2ccccc2)cc1 [4-phenoxyphenylacetic acid]
The melting point of the first is lower: 44 °C for the first, 76 °C for the second.

First: c1ccc(-c2csc(-c3ccccn3)n2)cc1 [4-phenyl-2-(2-pyridyl)thiazole]
Second: Cc1cccc(-c2nc(-c3ccccc3)cs2)c1 [4-phenyl-2-(m-tolyl)thiazole]
The melting point of the first is higher: 57 °C for the first, 48 °C for the second.

Compared with `Cc1ccc(-c2nc(-c3ccccc3)cs2)cc1` [4-phenyl-2-(p-tolyl)thiazole], `Nc1cc(-c2ccccc2)c(O)c(-c2ccccc2)c1` [5'-Amino-1,1':3',1''-terphenyl-2'-ol] is higher in melting point: 58 °C for the first, 149 °C for the second.

Going from `CC(C)(O)CCc1ccccc1` [4-phenyl-2-methyl-2-butanol] to `O=C(O)CCCc1ccccc1` [4-phenylbutyric acid], the melting point rises from 32 °C to 52 °C.

Going from `O=C1CCC(c2ccccc2)CC1` [4-phenylcyclohexanone] to `O=c1[nH][nH]c(=O)n1-c1ccccc1` [4-phenylurazole], the melting point rises from 80 °C to 208 °C.

Going from `CC(C)(C)c1ccc(B(O)O)cc1` [4-tert-butylbenzeneboronic acid] to `CC(C)(C)c1ccc(C(=O)O)cc1` [4-tert-butylbenzoic acid], the melting point falls from 194 °C to 166 °C.

First: CCC(C)(C)c1ccc(O)cc1 [4-tert-pentylphenol]
Second: COc1ccc(C(C)(C)C)cc1B(O)O [5-tert-butyl-2-methoxybenzeneboronic acid]
The melting point of the first is lower: 89 °C for the first, 105 °C for the second.

Going from `O=S(=O)(Cl)Cc1ccc(C(F)(F)F)cc1` [4-trifluoromethyl-alpha-toluenesulfonyl chloride] to `O=c1[nH]cc(C(F)(F)F)c(=O)[nH]1` [5-(trifluoromethyl)uracil], the melting point rises from 104 °C to 253 °C.

Compared with `C=Cc1ccc(C(=O)O)cc1` [4-vinylbenzoic acid], `Nc1ccc(O)c(C(=O)O)c1` [5-aminosalicylic acid] is higher in melting point: 142 °C for the first, 280 °C for the second.

Compared with `O=C1NC(=O)C(c2ccccc2)(c2ccccc2)N1` [5,5-diphenylhydantoin], `c1ccc(COc2cccc(-c3nnn[nH]3)c2)cc1` [5-(3-benzyloxyphenyl)-1h-tetrazole] is lower in melting point: 296 °C for the first, 209 °C for the second.

Going from `Cc1cc2nsnc2cc1C` [5,6-dimethyl-2,1,3-benzothiadiazole] to `Cc1cc(C)c(Br)cc1C` [5-bromo-1,2,4-trimethylbenzene], the melting point falls from 84 °C to 72 °C.

Compared with `Clc1cc(Cl)cc(-c2nnn[nH]2)c1` [5-(3,5-dichlorophenyl)-1h-tetrazole], `COc1cccc(-c2nnn[nH]2)c1` [5-(3-methoxyphenyl)-1h-tetrazole] is lower in melting point: 207 °C for the first, 157 °C for the second.

First: CN(C)c1ccc(/C=C2\SC(=S)NC2=O)cc1 [5-(4-dimethylaminobenzylidene)rhodanine]
Second: COc1ccc2c(c1)C(=O)C(=O)N2 [5-methoxyisatin]
The melting point of the first is higher: 278 °C for the first, 201 °C for the second.

First: CCSc1nnn[nH]1 [5-(ethylthio)-1h-tetrazole]
Second: Cn1nnnc1S [5-mercapto-1-methyltetrazole]
The melting point of the first is lower: 76 °C for the first, 127 °C for the second.

First: Nc1cccc2c(=O)[nH][nH]c(=O)c12 [5-Amino-2,3-dihydrophthalazine-1,4-dione]
Second: Nc1cccc2cnccc12 [5-aminoisoquinoline]
The melting point of the first is higher: 319 °C for the first, 129 °C for the second.

Going from `Oc1cc(Cl)ccc1Oc1ccc(Cl)cc1Cl` [5-Chloro-2-(2,4-dichlorophenoxy)phenol] to `Nc1cc(Cl)ccc1O` [5-chloro-2-hydroxyaniline], the melting point rises from 57 °C to 143 °C.

First: Cc1ccc(C(C)C)cc1O [5-Isopropyl-2-methylphenol]
Second: O=C(O)c1cc(Cl)ccc1O [5-chlorosalicylic acid]
The melting point of the first is lower: 2 °C for the first, 174 °C for the second.

First: COc1ccc2c(c1)no[n+]2[O-] [5-Methoxybenzofurazan, 1-oxide]
Second: Cc1ccc2c(c1)no[n+]2[O-] [5-methylbenzofuroxan]
The melting point of the first is higher: 118 °C for the first, 97 °C for the second.

First: O=C1CC[C@@H](C(=O)O)N1 [5-Oxo-L-proline]
Second: O=C(O)CCCC[C@@H]1CCSS1 [5-[(3R)-1,2-Dithiolan-3-yl]pentanoic acid]
The melting point of the first is higher: 162 °C for the first, 60 °C for the second.

First: NCCCCCO [5-amino-1-pentanol]
Second: OC[C@@H]1[C@H](CO)[C@@H]2C=C[C@H]1C2 [5-norbornene-2-endo,3-endo-dimethanol]
The melting point of the first is lower: 36 °C for the first, 84 °C for the second.

Going from `Cn1ncc(Br)c1N` [5-amino-4-bromo-1-methyl-1h-pyrazole] to `Cc1cc(Br)cn(C)c1=O` [5-bromo-1,3-dimethyl-2-pyridone], the melting point rises from 99 °C to 106 °C.

Going from `N#CCc1nn(-c2ccccc2)c(N)c1C#N` [5-amino-4-cyano-3-cyanomethyl-1-phenyl-1h-pyrazole,] to `N#CCc1csc2ccc(Cl)cc12` [5-chlorobenzo[b]thiophene-3-acetonitrile], the melting point falls from 164 °C to 134 °C.

Going from `CN1CC(Br)C(=O)NC1=O` (centres undefined) [5-bromo-1-methyldihydropyrimidine-2,4(1H,3H)-dione] to `CC(=O)OC1CCC2(C)C3CCC4(C)C(=O)CCC4C3C(=O)CC2(C)C1` (centres undefined) [5-methyl-7,17-dioxoandrostan-3-yl acetate], the melting point rises from 149 °C to 155 °C.

First: O=c1[nH]c(=O)n([C@@H]2O[C@H](CO)[C@@H](O)[C@H]2O)cc1Br [5-bromouridine]
Second: O=C1CCC(c2ccc(Br)cc2)=NN1 [6-(4-bromophenyl)-4,5-dihydro-3(2h)-pyridazinone]
The melting point of the first is higher: 192 °C for the first, 169 °C for the second.

First: COc1ccc(Cl)cc1B(O)O [5-chloro-2-methoxybenzeneboronic acid]
Second: COc1ccc(C(C)(C)C)cc1C(=O)O [5-tert-butyl-2-methoxybenzoic acid]
The melting point of the first is higher: 138 °C for the first, 75 °C for the second.

Going from `Cc1cc2cc(Cl)ccc2[nH]1` [5-chloro-2-methylindole] to `Cc1ccc2[nH]cnc2c1` [5-methylbenzimidazole], the melting point rises from 112 °C to 115 °C.

First: Oc1ccc(Cl)c2cccnc12 [5-chloro-8-hydroxyquinoline]
Second: Clc1ccc(-c2ccnc(Cl)c2)cn1 [6,2'-dichloro-3,4'-bipyridine]
The melting point of the first is lower: 123 °C for the first, 222 °C for the second.

First: OB(O)c1ccc(Cl)s1 [5-chlorothiophene-2-boronic acid]
Second: COc1ccc2nc(N)sc2c1 [6-Methoxy-1,3-benzothiazol-2-amine]
The melting point of the first is lower: 138 °C for the first, 166 °C for the second.

Compared with `CCc1ccc(C)nc1` [5-ethyl-2-methylpyridine], `Nc1ccc2ncsc2c1` [6-aminobenzothiazole] is higher in melting point: -71 °C for the first, 88 °C for the second.

Going from `Cc1nnc(S)s1` [5-methyl-1,3,4-thiadiazole-2-thiol] to `O=Cc1ccc([N+](=O)[O-])o1` [5-nitro-2-furaldehyde], the melting point falls from 187 °C to 36 °C.

In the case of `CCSC(SCC)C(O)C(O)C(O)C(O)CO` (centres undefined) [6,6-di(ethylthio)hexane-1,2,3,4,5-pentaol], the melting point was 128 °C.

With `O=[N+]([O-])c1ccc(O)cc1` [4-nitrophenol] [listing 2 of 2 here] the melting point was 112 °C and 113 °C.

Source: the Bradley open melting point set (2014)
